The source of these data is US20100239646A1, “Sublingual methotrexate and methotrexate patches” (priority 2009, published 2010).

Molecules are shown by their SMILES.

Data set [1] is described as follows: Absorption of oral methotrexate in a group of arthritic patients (Example-1). The class given is in vivo, human. As to conditions: oral dosage form. On the procedure:
If 10 mg of the drug is given by the oral route only 2.0 mg is absorbed. If the optimal therapeutic dosage is tailored based on this low absorption, then the therapeutically effective dose without manifestation of significant toxic effects would be an effective accumulation of 2.0 mg of the drug in the plasma. It is reasonable to assume for antifolates that an increase of 50% of drug level in plasma relative to the accepted safe level would lead to disastrous toxic consequences including severe bone marrow depression. Therefore an increase of bioavailability from 20 to 30 percent in this case would effectively increase drug concentration by 50% in the plasma. The 10 percent increase in Bioavailability may well be envisioned by slight pH changes in the gut of patients who may be taking antacids, or medicine to modulate acid secretions, taking other medications or unknown factors. The present invention addresses this very crucial safety issues and provides a means to stabilize drug concentration in plasma to predictable levels by replacing oral dosage form of methotrexate with the sublingual dosage form, the absorption of which is independent of the biochemical pharmacology of human gut.

Data set [2] concerns patients with rheumatoid arthritis. Description: Conventional therapy of rheumatoid arthritis with methotrexate (Rheumatrex). It counts as in vivo, human. An excerpt:
(§1) In order to unravel the mechanism of methotrexate non-responsiveness M. G. Nair investigated the metabolism of methotrexate and its potential deactivation pathways. […] 3; 29-34 (1996)].

The conditions of data set [3]: oral dosage form; cited from earlier work.
The conditions of data set [4]: cited from earlier work.
For data set [5] the following is noted: cited from earlier work. The source holds these as a separate data set.
The conditions of data set [6]: women; sublingual versus oral solid dosage unit; cited from earlier work.
A further data set concerns aldehyde oxidase. Description: Aldehyde oxidase mediated oxidation of methotrexate.
Text: as §1
The aldehyde oxidase mediated oxidation of methotrexate vs. certain metabolically inert antifolates was investigated by M. Gopal Nair. [Med. Chem. Research. 9:176-185, 1999].

Compound `CN(Cc1cnc2nc(N)nc(N)c2n1)c1ccc(C(=O)N[C@@H](CCC(=O)O)C(=O)O)cc1` [methotrexate] gave an absorption in data set [1] of 20%. Besides, in data set [2], the “percentage of patients who were methotrexate non-responders” value was 40%. In data set [2] (some patients), the drug related toxicity entry is listed as “elevation of liver enzymes”. The theoretical bioavailability in data set [3] was 20-80%. In data set [4], the solubility result is recorded as “pH dependent”. For the same compound, in data set [5] (60 mg weekly instead of 15 mg weekly, oral tablets, rheumatoid arthritis patient), the “toxic effects of the incorrect dose” value was “odynophagia, dysphagia and oesophagitis”. Further, the severe unwanted effects result in data set [5] (weekly dose taken in error daily or on several days each week) was “neutropenia, hepatotoxicity and bone marrow suppression”.

As for `Nc1nc(=O)c2c([nH]1)NCC(CNc1ccc(C(=O)N[C@@H](CCC(=O)[O-])C(=O)[O-])cc1)N2C=O.[Ca+2]` (stereo partly shown) [Calcium folinate], the “time to improvement of odynophagia” value in data set [5] (15 mg orally four times a day after methotrexate overdose) was ≤ 24 h.

Regarding `C[C@]12CC[C@@H]3c4ccc(O)cc4CC[C@H]3[C@@H]1CC[C@@H]2O` [estradiol], the “share of the oral dose needed by the sublingual route to achieve the same bioavailability” value in data set [6] was 20-25%.

For the compound `CN(Cc1nc2c(N)nc(N)nc2[nH]c1=O)c1ccc(C(=O)N[C@@H](CCC(=O)O)C(=O)O)cc1` [7-hydroxymethotrexate], in the data set with aldehyde oxidase, the “antifolate activity of the oxidation product” value was “inactive”.
